From patent US10787442B2, “Modulators of indoleamine 2,3-dioxygenase” (GLAXOSMITHKLINE INTELLECTUAL PROPERTY DEVELOPMENT LIMITED, priority 2016, dated 2020)

Tested on: human peripheral blood mononuclear cells (PBMC)
Assay: PBMC cytotoxicity assay (CellTiter-Glo)
Assay type: cell-based
Conditions: cytotoxicity in stimulated PBMC, recorded as pCC50
Method: Compounds of the present invention were tested via high-throughput cellular assays utilizing detection of kynurenine via mass spectrometry and cytotoxicity as end-points. […] Compounds with IDO1 inhibitory properties decreased the amount of kynurenine produced by the cells via the tryptophan catabolic pathway. Cellular toxicity due to the effect of compound treatment was measured using CellTiter-Glo® reagent (CTG) (Promega Corporation, Madison, Wis.), which is based on luminescent detection of ATP, an indicator of metabolically active cells.
In preparation for the assays, test compounds were serially diluted 3-fold in DMSO from a typical top concentration of 1 mM or 5 mM and plated at 0.5 μL in 384-well, polystyrene, clear bottom, tissue culture treated plates with lids (Greiner Bio-One, Kremsmünster, Austria) to generate 11-point dose response curves. Low control wells (0% kynurenine or 100% cytotoxicity) contained either 0.5 μL of DMSO in the presence of unstimulated (−IFN-γ/−LPS) PBMCs for the mass spectrometry assay or 0.5 μL of DMSO in the absence of cells for the cytotoxicity assay, and high control wells (100% kynurenine or 0% cytotoxicity) contained 0.5 μL of DMSO in the presence of stimulated (+IFN-γ/+LPS) PBMCs for both the mass spectrometry and cytotoxicity assays.
Frozen stocks of PBMCs were washed and recovered in RPMI 1640 medium (Thermo Fisher Scientific, Inc., Waltham, Mass.) supplemented with 10% v/v heat-inactivated fetal bovine serum (FBS) (Thermo Fisher Scientific, Inc., Waltham, Mass.), and 1× penicillin-streptomycin antibiotic solution (Thermo Fisher Scientific, Inc., Waltham, Mass.). The cells were diluted to 1,000,000 cells/mL in the supplemented RPMI 1640 medium. 50 μL of either the cell suspension, for the mass spectrometry assay, or medium alone, for the cytotoxicity assay, were added to the low control wells, on the previously prepared 384-well compound plates, resulting in 50,000 cells/well or 0 cells/well respectively. IFN-γ and LPS were added to the remaining cell suspension at final concentrations of 100 ng/ml and 50 ng/ml respectively, and 50 μL of the stimulated cells were added to all remaining wells on the 384-well compound plates. The plates, with lids, were then placed in a 37° C., 5% CO2 humidified incubator for 2 days.
Following incubation, the 384-well plates were removed from the incubator and allowed to equilibrate to room temperature for 30 minutes. For the cytotoxicity assay, CellTiter-Glo® was prepared according to the manufacturer's instructions, and 40 μL were added to each plate well. After a twenty minute incubation at room temperature, luminescence was read on an EnVision® Multilabel Reader (PerkinElmer Inc., Waltham, Mass.). For the mass spectrometry assay, 10 μL of supernatant from each well of the compound-treated plates were added to 40 μL of acetonitrile, containing 10 μM of an internal standard for normalization, in 384-well, polypropylene, V-bottom plates (Greiner Bio-One, Kremsmünster, Austria) to extract the organic analytes. Following centrifugation at 2000 rpm for 10 minutes, 10 μL from each well of the acetonitrile extraction plates were added to 90 μL of sterile, distilled H2O in 384-well, polypropylene, V-bottom plates for analysis of kynurenine and the internal standard on the RapidFire 300 (Agilent Technologies, Santa Clara, Calif.) and 4000 QTRAP MS (SCIEX, Framingham, Mass.). MS data were integrated using Agilent Technologies' RapidFire Integrator software, and data were normalized for analysis as a ratio of kynurenine to the internal standard.

Row | SMILES | PBMC_TOX PXC50
1 | Cc1nc(Nc2cc([C@H](C)CC(=O)O)cnc2N(CC(C)C)C2CCOCC2)ccc1Cl [Example 69, (3R)-3-{5-[(5-chloro-6-methylpyridin-2-yl)amino]-6-[(2-methylpropyl)(oxan-4-yl)amino]pyridin-3-yl}butanoic acid] | <5.0
2 | CC(C)CN(c1cnc([C@H](C)CC(=O)O)cc1Nc1ccc(Cl)cn1)C1CCOCC1 [Example 82, (3R)-3-{4-[(5-chloropyridin-2-yl)amino]-5-[(2-methylpropyl)(oxan-4-yl)amino]pyridin-2-yl}butanoic acid] | <5.0
3 | CC(C)CN(c1ncc([C@H](C)CC(=O)O)cc1Nc1nc(C(C)C)ns1)C1CCCCC1 [Example 14, (R)-3-(6-(cyclohexyl(isobutyl)amino)-5-((3-isopropyl-1,2,4-thiadiazol-5-yl)amino)pyridin-3-yl)butanoic acid] | <5.0
4 | CC(C)CN(CC(C)C)c1ncc([C@H](C)CC(=O)O)cc1Nc1nc(C(C)C)ns1 [Example 54, (3R)-3-{6-[bis(2-methylpropyl)amino]-5-{[3-(propan-2-yl)-1,2,4-thiadiazol-5-yl]amino}pyridin-3-yl}butanoic acid] | <5.0
5 | CC(C)CN(c1ncc([C@H](C)CC(=O)O)cc1Nc1ccc(Cl)cn1)C1CC(F)(F)C1 [Example 75, (3R)-3-{5-[(5-chloropyridin-2-yl)amino]-6-[(3,3-difluorocyclobutyl)(2-methylpropyl)amino]pyridin-3-yl}butanoic acid] | <5.0
6 | Cc1ccc(CC(=O)Nc2cc([C@H](C)CC(=O)O)cnc2N(CC(C)C)C2CC3(C2)CN(C(=O)OC(C)(C)C)C3)cc1 [Example 55, (3R)-3-[6-({2-[(tert-butoxy)carbonyl]-2-azaspiro[3.3]heptan-6-yl}(2-methylpropyl)amino)-5-[2-(4-methylphenyl)acetamido]pyridin-3-yl]butanoic acid] | <5.0
7 | CC(C)CN(c1ncc([C@H](C)CC(=O)O)cc1Nc1cnc(Cl)cn1)C1CCOCC1 [Example 77, (3R)-3-{5-[(5-chloropyrazin-2-yl)amino]-6-[(2-methylpropyl)(oxan-4-yl)amino]pyridin-3-yl}butanoic acid] | <5.0
8 | COCc1nsc(Nc2cc([C@H](C)CC(=O)O)cnc2N(CC(C)C)C2CCOCC2)n1 [Example 56, (3R)-3-(5-{[3-(methoxymethyl)-1,2,4-thiadiazol-5-yl]amino}-6-[(2-methylpropyl)(oxan-4-yl)amino]pyridin-3-yl)butanoic acid] | <5.0
9 | CC(C)CN(c1ncc(C(C)CC(=O)O)cc1Nc1nc(C2CC2)ns1)C1CCOCC1 (stereo not drawn) [Example 37, 3-{5-[(3-cyclopropyl-1,2,4-thiadiazol-5-yl)amino]-6-[(2-methylpropyl)(oxan-4-yl)amino]pyridin-3-yl}butanoic acid] | <5.0
10 | COCc1nnc(Nc2cc([C@H](C)CC(=O)O)cnc2N(CC(C)C)C2CCOCC2)s1 [Example 49, (3R)-3-(5-{[5-(methoxymethyl)-1,3,4-thiadiazol-2-yl]amino}-6-[(2-methylpropyl)(oxan-4-yl)amino]pyridin-3-yl)butanoic acid] | <5.0
11 | CC(C)CN(c1ncc(C(C)CC(=O)O)cc1Nc1nc(C(F)(F)F)ns1)C1CCC(O)CC1 (stereo not drawn) [Example 59, (3RS)-3-{6-[(2-methylpropyl)[(1rs&,4rs&)-4-hydroxycyclohexyl]amino]-5-{[3-(trifluoromethyl)-1,2,4-thiadiazol-5-yl]amino}pyridin-3-yl}butanoic acid] | <5.0
12 | CC(C)CN(c1ncc([C@H](C)CC(=O)O)cc1Nc1n[nH]c(C#N)n1)C1CCOCC1 [Example 43, (3R)-3-{5-[(5-cyano-1H-1,2,4-triazol-3-yl)amino]-6-[(2-methylpropyl)(oxan-4-yl)amino]pyridin-3-yl}butanoic acid] | <5.0
